This passage reports relative viability results from the supplement of paper PMC10307832.

Common to all, as to assay: relative viability (nuclei count vs DMSO), 5 days (fraction); higher = more cells survive
Compound in test [1]: C[C@@H](N)c1ccc(C(=O)Nc2ccnc3[nH]ccc23)cc1 + COc1cccc2cc(-c3nc([C@H]4CC[C@H](C(=O)O)CC4)n4ncnc(N)c34)[nH]c12 [OSI-027] (partner 0.5 µM)
The method, boiled down:
(§1)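 Medians of duplicate plates are given as relative viability. That measure is the nuclei count in treated wells divided by the count in vehicle wells. Counts were taken on 4× images of lung cancer cell lines in 1536-well plates, 5 days after pin-tool dosing the day after seeding with one drug alone or a fixed anchor-drug dose plus five library-drug doses (not always all listed) in √10 steps.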

Compound in test [2]: C1CNCCC1C2=CC(=NN2)C3=CC=NC=C3 + CC(=O)c1c(C)c2cnc(Nc3ccc(N4CCNCC4)cn3)nc2n(C2CCCC2)c1=O [Palbociclib] (partner 0.5 µM)
In outline:
as §1

Compound in test [3]: C1CNCCC1C2=CC(=NN2)C3=CC=NC=C3 + C[C@@H](Oc1cc(-c2cnn(C3CCNCC3)c2)cnc1N)c1c(Cl)ccc(F)c1Cl [Crizotinib] (partner 1 µM)
The method, boiled down: as §1

Compound in test [4]: C1CNCCC1C2=CC(=NN2)C3=CC=NC=C3 + O=C(c1cc(Cc2n[nH]c(=O)c3ccccc23)ccc1F)N1CCN(C(=O)C2CC2)CC1 [Olaparib] (partner 8 µM)
In outline:
as §1

For the cell line UMC-11, the relative viability in test [1] (first compound 0.04 µM) was found to be 0.583; in test [1] (first compound 0.1265 µM) it was 0.565; in test [1] (first compound 0.4 µM), 0.555; in test [1] (first compound 1.265 µM) it was 0.453; in test [1] (first compound 4 µM) it was 0.459; in test [2] (first compound 0.08 µM) it was 0.317. Besides, the relative viability turned out to be 0.343 in test [2] (first compound 0.8 µM); 0.325 in test [2] (first compound 2.53 µM); 0.333 in test [2] (first compound 8 µM); 0.69 in test [3] (first compound 0.08 µM); 0.577 in test [3] (first compound 0.8 µM); 0.713 in test [3] (first compound 2.53 µM). Further, the relative viability is 0.63 in test [3] (first compound 8 µM); 0.403 in test [4] (first compound 0.08 µM); 0.379 in test [4] (first compound 0.8 µM); 0.436 in test [4] (first compound 2.53 µM); 0.365 in test [4] (first compound 8 µM).
